Results taken from patent publication US7348427B2, “Antipathogenic benzamide compounds” (Genesoft Pharmaceuticals, Inc., priority 2001, dated 2008).
In brackets after ≈: the same amount, converted by molar mass.

Assays:
[1] = tested on: Streptococcus pneumoniae (ATCC 51422, a penicillin resistant strain (PRSP)); assay: MIC, NCCLS broth microdilution assay; type: cell-based; details: I = S. pneumoniae ATCC 51422
In short: (§1)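 Broth microdilution, NCCLS M7-A4/M11-A4/M27-T guidelines; readout = minimal inhibitory concentration. Candida: Manual of Clinical Microbiology method.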

[2] = tested on: Bacillus cereus (ATCC 11778); assay: MIC, NCCLS broth microdilution assay; type: cell-based; details: A = B. cereus ATCC 11778
In short: as §1

[3] = tested on: Staphylococcus epidermidis (ATCC 12228); assay: MIC, NCCLS broth microdilution assay; type: cell-based; details: G = S. epidermidis ATCC 12228
In short: as §1

[4] = tested on: Staphylococcus aureus (ATCC 13709, a methicillin sensitive strain (MSSA)); assay: MIC, NCCLS broth microdilution assay; type: cell-based; details: E = S. aureus ATCC 13709
In short: as §1

[5] = tested on: Enterococcus faecium (ATCC 51559, a vancomycin resistant strain (VRE)); assay: MIC, NCCLS broth microdilution assay; type: cell-based; details: D = E. faecium ATCC 51559
In short: as §1

[6] = tested on: Staphylococcus aureus (ATCC 27660, a methicillin resistant strain (MRSA)); assay: MIC, NCCLS broth microdilution assay; type: cell-based; details: F = S. aureus ATCC 27660
In short: as §1

S. pneumoniae ATCC 49619 = assay: MIC, NCCLS broth microdilution assay; type: cell-based, Streptococcus pneumoniae; details: H = S. pneumoniae ATCC 49619
In short: (§2)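 MICs were determined by NCCLS broth microdilution following documents M7-A4 and M11-A4 (1997).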

[7] = target: dsDNA target sequence AATTAATCAT (352 bp fragment, Plasmid B); assay: Quantitative DNase I footprint titration, dsDNA binding; details: 352 bp/B, 22° C., pH 7.0, read-out: Dissociation Constant Kd
E. faecalis ATCC 29212 = assay: MIC, NCCLS broth microdilution assay; type: cell-based, Enterococcus faecalis; details: C = E. faecalis ATCC 29212
In short: as §2

[8] = target: dsDNA target sequence AATACT (310 bp fragment, Plasmid A); assay: Quantitative DNase I footprint titration, dsDNA binding; details: 310 bp/A, 22° C., pH 7.0, read-out: Dissociation Constant Kd
[9] = tested on: Candida albicans (ATCC 38247); assay: Antifungal MIC assay; type: cell-based; details: B = C. albicans ATCC 38247
In short: as §1

[10] = tested on: methicillin resistant Staphylococcus aureus ATCC 33591; assay: Murine neutropenic thigh model; type: in vivo; details: neutropenic female CF1 mice, 6 hr after treatment
Description: A S. aureus ATCC 33591 culture was grown to log phase overnight and diluted in phosphate buffered saline (pH 7.2) to an optical density of about 0.1 at 600 nm, giving an approximate concentration of 10^8 cfu/mL. The suspension was diluted 1:100 in phosphate buffered saline (pH 7.2) for a final concentration of 10^6 cfu/mL.
Outbred female CF1 mice (approx. 20 gram body weight) were rendered neutropenic by treatment with cyclophosphamide (200 mg/kg body weight, intraperitoneal injection) at 2 and 4 days prior to inoculation. Groups of 5 mice were inoculated with 0.05 mL of the bacteria (approx. 10^6 cfu/mL) into the anterior thigh. Each group was treated intravenously two hours post infection with vehicle (phosphate buffered saline) or test compound. The mice were sacrificed at either 6 or 24 hrs after treatment and thighs were collected aseptically. Each thigh was weighed, placed into sterile saline, and homogenized. The tissue homogenates were diluted appropriately for plating on agar plates. Colony counts were recorded (cfu/gram) and compared to control groups.
In vivo efficacy was shown by a decrease in colony count (log cfu/gram of tissue) in the compound-treated animals when compared against the colony count in animals given only the vehicle.

[11] = Staphylococcus aureus, read-out: Minimum Inhibitory Concentration (MIC)
[12] = 25 mg/kg intravenously two hours post infection
[13] = 50 mg/kg intravenously two hours post infection

Row | SMILES | Minimum Inhibitory Concentration (MIC) [1] | Minimum Inhibitory Concentration (MIC) [2] | Minimum Inhibitory Concentration (MIC) [3] | Minimum Inhibitory Concentration (MIC) [4] | Minimum Inhibitory Concentration (MIC) [5] | Minimum Inhibitory Concentration (MIC) [6] | Minimum Inhibitory Concentration (MIC) (S. pneumoniae ATCC 49619) | Minimum Inhibitory Concentration (MIC) (E. faecalis ATCC 29212) | Minimum Inhibitory Concentration (MIC) [9] | Colony Count (log cfu/gram) Compound [10, 12] | Colony Count (log cfu/gram) Compound [10, 13] | also measured
1 | Cn1cc(NC(=O)c2cc(NC(=O)c3cc(NC(=O)c4ccc(Cl)cc4F)c[nH]3)cn2C)cc1C(=O)NCCN1CCOCC1 [Compound A-3] | – | – | – | – | – | – | – | – | – | – | – | MIC ([1]; Streptococcus pneumoniae, read-out: Minimum Inhibitory Concentration (MIC)): ≤ 4 µg/mL; MIC ([2]; Bacillus cereus, ATCC11778, read-out: Minimum Inhibitory Concentration (MIC)): ≤ 4 µg/mL; MIC ([3]; Staphylococcus epidermidis, ATCC12228, read-out: Minimum Inhibitory Concentration (MIC)): ≤ 4 µg/mL; MIC [4, 11]: ≤ 4 µg/mL; MIC ([5]; Enterococcus faecium, read-out: Minimum Inhibitory Concentration (MIC)): ≤ 4 µg/mL; MIC [6, 11]: ≤ 4 µg/mL; MIC (S. pneumoniae ATCC 49619; Streptococcus pneumoniae, ATCC49619, read-out: Minimum Inhibitory Concentration (MIC)): ≤ 4 µg/mL; Kd [7]: 1 nM; MIC (E. faecalis ATCC 29212; Enterococcus faecalis, ATCC29212, read-out: Minimum Inhibitory Concentration (MIC)): ≤ 4 µg/mL; Kd [8]: 5 nM; MIC ([9]; Candida albicans, ATCC38247, read-out: Minimum Inhibitory Concentration (MIC)): 12 to 32 µg/mL (≈ 18.8 to 50.1 µM)
2 | Cn1cc(NC(=O)c2cc(NC(=O)c3cc(NC(=O)c4ccc(F)cc4F)c[nH]3)cn2C)cc1C(=O)NCCN1CCCCC1 [Compound A-4] | +++ (+++ = MIC ≦ 4) | +++ (+++ = MIC ≦ 4) | +++ (+++ = MIC ≦ 4) | +++ (+++ = MIC ≦ 4) | +++ (+++ = MIC ≦ 4) | +++ (+++ = MIC ≦ 4) | +++ (+++ = MIC ≦ 4) | + (+ = 12 ≦ MIC ≦ 32) | ++ (++ = 4 < MIC < 12) | 5.75 log cfu/gram | 4.99 log cfu/gram | –
3 | Cn1cc(NC(=O)c2cc(NC(=O)c3cc(NC(=O)c4ccc(F)cc4F)c[nH]3)cn2C)cc1C(=O)NCCN1CCC(O)CC1 [Compound A-8] | +++ (+++ = MIC ≦ 4) | +++ (+++ = MIC ≦ 4) | +++ (+++ = MIC ≦ 4) | +++ (+++ = MIC ≦ 4) | +++ (+++ = MIC ≦ 4) | +++ (+++ = MIC ≦ 4) | +++ (+++ = MIC ≦ 4) | +++ (+++ = MIC ≦ 4) | + (+ = 12 ≦ MIC ≦ 32) | 5.85 log cfu/gram | 4.45 log cfu/gram | –
4 | Cn1cc(NC(=O)c2cc(NC(=O)c3cc(NC(=O)c4ccc(F)cc4F)c[nH]3)cn2C)cc1C(=O)NCCN1CCCC1 [Compound A-9] | +++ (+++ = MIC ≦ 4) | +++ (+++ = MIC ≦ 4) | +++ (+++ = MIC ≦ 4) | +++ (+++ = MIC ≦ 4) | +++ (+++ = MIC ≦ 4) | +++ (+++ = MIC ≦ 4) | + (+ = 12 ≦ MIC ≦ 32) | +++ (+++ = MIC ≦ 4) | + (+ = 12 ≦ MIC ≦ 32) | 7.11 log cfu/gram | 5.11 log cfu/gram | –
5 | Cn1cc(NC(=O)c2cc(NC(=O)c3cc(NC(=O)c4ccc(F)cc4F)cn3C)cn2C)cc1C(=O)NCCN1CCCCC1 [Compound B-6] | +++ (+++ = MIC ≦ 4) | +++ (+++ = MIC ≦ 4) | +++ (+++ = MIC ≦ 4) | +++ (+++ = MIC ≦ 4) | +++ (+++ = MIC ≦ 4) | +++ (+++ = MIC ≦ 4) | +++ (+++ = MIC ≦ 4) | +++ (+++ = MIC ≦ 4) | >32 µg/mL | – | 6.37 log cfu/gram | –
